Source: ChEMBL document CHEMBL6153138, “Discovery of Novel Aromatic Urea-Imidazole Salt Derivatives for Cancer Therapy via Targeting ERK1/2” (J Med Chem, 2025)
Activity calls are given as the source filed them. The rule behind the calls is not given here.

Assays:
MCF7 [1] = assay: Antiproliferative activity against human MCF7 cells incubated for 48 hrs by CCK-8 method; type: functional, cell-based; conditions: MCF7, 48 h
[2] = target: Mitogen-activated protein kinase 1 (Homo sapiens, UniProt P28482); assay: Inhibition of ERK2 (unknown origin) incubated for 60 mins by luminescence based ADP-Glo kinase assay
A549 [3] = assay: Growth inhibition of human A549 cells at 5 uM incubated for 48 hrs by CCK-8 method relative to control; type: functional; conditions: read-out: GI
HepG2 [4] = assay: Antiproliferative activity against human HepG2 cells incubated for 48 hrs by CCK-8 method; type: functional, cell-based; conditions: HepG2, 48 h
5637 [5] = assay: Antiproliferative activity against human 5637 cells incubated for 48 hrs by CCK-8 method; type: functional, cell-based; conditions: Homo sapiens, 5637, 48 h
HepG2 [6] = assay: Growth inhibition of human HepG2 cells at 5 uM incubated for 48 hrs by CCK-8 method relative to control; type: functional; conditions: read-out: GI
A549 [7] = assay: Antiproliferative activity against human A549 cells incubated for 48 hrs by CCK-8 method; type: functional, cell-based; conditions: A549, 48 h
MCF7 [8] = assay: Growth inhibition of human MCF7 cells at 5 uM incubated for 48 hrs by CCK-8 method relative to control; type: functional; conditions: read-out: GI
5637 [9] = assay: Growth inhibition of human 5637 cells at 5 uM incubated for 48 hrs by CCK-8 method relative to control; type: functional; conditions: read-out: GI
MCF-10A = assay: Antiproliferative activity against human MCF-10A cells incubated for 48 hrs by CCK-8 method; type: functional, cell-based
HCC1937 = assay: Antiproliferative activity against human HCC1937 cells incubated for 48 hrs by CCK-8 method; type: functional, cell-based; conditions: HCC1937, 48 h
MCF7 [10] = assay: Activation of ERK1/2 pathway in human MCF7 cells assessed as increase in EGF-induced c-Myc phosphorylation at 5 uM incubated for 30 mins by Western blot analysis; type: cell-based
MCF7 [11] = assay: Induction of autophagy in human MCF7 cells assessed as increase in ATG5 level at 5 uM by Western blot analysis; type: functional, cell-based
MCF7 [12] = assay: Induction of autophagy in human MCF7 cells assessed as increase in Beclin-1 level at 5 uM by Western blot analysis; type: functional, cell-based
4T1 [13] = assay: Antitumor activity against mouse 4T1 cells implanted in female BALB/c mouse model assessed as tumor growth inhibition at 50 mg/kg, ip qd measured for 18 days relative to control; type: functional; conditions: 4T1, 432 h, time 18 day, read-out: TGI
MCF7 [14] = assay: Activation of ERK1/2 pathway in human MCF7 cells assessed as increase in EGF-induced ERK phosphorylation at 5 uM incubated for 30 mins by Western blot analysis; type: cell-based; conditions: filed as activator
MCF7 [15] = assay: Induction of autophagy in human MCF7 cells assessed as increase in LC3B-II level at 5 uM by Western blot analysis; type: functional, cell-based
MCF7 [16] = assay: Activation of ERK1/2 pathway in human MCF7 cells assessed as increase in EGF-induced p90RSK phosphorylation at 5 uM incubated for 30 mins by Western blot analysis; type: cell-based
4T1 [17] = assay: Antiproliferative activity against mouse 4T1 cells incubated for 48 hrs by CCK-8 method; type: functional, cell-based; conditions: 4T1, 48 h
MDA-MB-468 = assay: Antiproliferative activity against human MDA-MB-468 cells incubated for 48 hrs by CCK-8 method; type: functional, cell-based; conditions: MDA-MB-468, 48 h
[18] = target: Mitogen-activated protein kinase 3 (Homo sapiens, UniProt P27361); assay: Inhibition of ERK1 (unknown origin) incubated for 60 mins by luminescence based ADP-Glo kinase assay
Mitogen-activated protein kinase 3, sequence (P27361 whole entry): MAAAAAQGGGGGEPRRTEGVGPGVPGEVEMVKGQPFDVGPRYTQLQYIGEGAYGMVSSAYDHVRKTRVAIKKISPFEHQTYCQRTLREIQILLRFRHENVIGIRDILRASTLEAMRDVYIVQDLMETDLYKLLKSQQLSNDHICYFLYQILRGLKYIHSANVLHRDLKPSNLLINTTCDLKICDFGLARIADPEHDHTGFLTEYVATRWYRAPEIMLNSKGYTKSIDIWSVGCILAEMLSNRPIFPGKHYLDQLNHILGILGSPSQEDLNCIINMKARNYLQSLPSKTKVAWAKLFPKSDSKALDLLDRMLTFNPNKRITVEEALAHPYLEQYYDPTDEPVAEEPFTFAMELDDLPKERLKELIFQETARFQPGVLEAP

Mitogen-activated protein kinase 1, sequence (P28482 whole entry): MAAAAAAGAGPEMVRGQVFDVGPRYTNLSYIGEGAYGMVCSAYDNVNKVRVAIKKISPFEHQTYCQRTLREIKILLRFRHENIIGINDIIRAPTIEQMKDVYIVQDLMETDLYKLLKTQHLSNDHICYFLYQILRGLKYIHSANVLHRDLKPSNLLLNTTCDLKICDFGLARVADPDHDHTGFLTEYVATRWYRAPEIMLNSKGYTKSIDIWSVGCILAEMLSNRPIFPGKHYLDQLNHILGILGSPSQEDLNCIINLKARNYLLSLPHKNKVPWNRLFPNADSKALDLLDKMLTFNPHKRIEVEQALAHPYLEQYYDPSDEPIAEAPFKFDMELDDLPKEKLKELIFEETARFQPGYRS

Row | Compound | IC50 (MCF7 [1]) [µM] | IC50 [2] [µM] | inhibition of growth at 5 µM (A549 [3]) [%] | IC50 (HepG2 [4]) [µM] | IC50 5637 [5] [µM] | inhibition of growth at 5 µM (HepG2 [6]) [%] | inhibition of growth at 5 µM (MCF7 [8]) [%] | inhibition of growth at 5 µM 5637 [9] [%] | IC50 [18] [µM] | also measured
1 | CC[C@@H](C)[C@@H](Cn1c[n+](Cc2ccccc2)c2ccccc21)NC(=O)Nc1cc(C(F)(F)F)cc(C(F)(F)F)c1 | 2.68 | 0.283 | 97.8 | 2.33 | 2.94 | 100 | 100 | 99.5 |  | IC50 (A549 [7]): 3.92 µM
2 | CC(C)[C@@H](Cn1c[n+](Cc2ccccc2)c2ccccc21)NC(=O)Nc1cc(C(F)(F)F)cc(C(F)(F)F)c1 | 3.37 | 0.285 | 30.2 |  |  | 39.5 | 91.9 | 56.5 |  | 
3 | CC(C)Nc1cc(-c2c[nH]c(C(=O)N[C@H](CO)c3cccc(Cl)c3)c2)c(Cl)cn1 [ULIXERTINIB] | > 10 |  |  | 6.12 | > 10 |  |  |  |  | IC50 (MCF-10A): > 10 µM; IC50 (HCC1937): > 10 µM; Activity (MCF7 [10]): inactive; Activity (MCF7 [11]): Active; Activity (MCF7 [12]): Active; inhibition in vivo at 50 mg/kg (4T1 [13]): 26.9%; Activity (MCF7 [14]): Active; IC50 (A549 [7]): 5.39 µM; Activity (MCF7 [15]): Active; Activity (MCF7 [16]): inactive; IC50 (4T1 [17]): > 10 µM; IC50 (MDA-MB-468): > 10 µM
4 | CC(=O)N[C@@H](Cc1ccccc1)Cn1c[n+](Cc2cccc3ccccc23)c2ccccc21 |  | > 10 |  |  |  |  |  |  | > 10 | 
5 | CC[C@@H](C)[C@@H](Cn1cc(C(F)(F)F)[n+](Cc2ccccc2)c1)NC(=O)Nc1cc(C(F)(F)F)cc(C(F)(F)F)c1 | 3.48 | 0.507 | 23.5 |  | 3.47 | 13.9 | 100 | 96.8 |  | 
6 | CC(=O)N[C@@H](Cc1ccccc1)Cn1cnc2ccccc21 |  | > 10 |  |  |  |  |  |  | > 10 | 
7 | O=C(N[C@@H](Cc1ccccc1)Cn1c[n+](Cc2cccc3ccccc23)c2ccccc21)c1ccccc1 |  | > 10 |  |  |  |  |  |  | > 10 | 
8 | O=C(N[C@@H](Cc1ccccc1)Cn1cnc2ccccc21)c1ccccc1 |  | > 10 |  |  |  |  |  |  | > 10 | 
9 | O=C(Nc1cc(C(F)(F)F)cc(C(F)(F)F)c1)N[C@@H](Cc1ccccc1)Cn1c[n+](Cc2ccccc2)c2ccccc21 | 1.55 | 0.206 | 50.6 |  |  | 35.3 | 99.5 | 56.8 |  | 
10 | O=c1[nH]cc(F)c(=O)[nH]1 [FLUOROURACIL] | 6 |  |  | > 10 | 7.4 |  |  |  |  | IC50 (MCF-10A): > 10 µM; IC50 (HCC1937): 5.67 µM; IC50 (4T1 [17]): > 10 µM; IC50 (MDA-MB-468): > 10 µM
